From patent publication US20180155344A1, “TRICYCLIC PIPERIDINE COMPOUNDS” (ACTELION PHARMACEUTICALS LTD, priority 2015, published 2018)

Target: T1, human TPH1 (Homo sapiens, UniProt P17752)
T1 sequence (P17752 1-444): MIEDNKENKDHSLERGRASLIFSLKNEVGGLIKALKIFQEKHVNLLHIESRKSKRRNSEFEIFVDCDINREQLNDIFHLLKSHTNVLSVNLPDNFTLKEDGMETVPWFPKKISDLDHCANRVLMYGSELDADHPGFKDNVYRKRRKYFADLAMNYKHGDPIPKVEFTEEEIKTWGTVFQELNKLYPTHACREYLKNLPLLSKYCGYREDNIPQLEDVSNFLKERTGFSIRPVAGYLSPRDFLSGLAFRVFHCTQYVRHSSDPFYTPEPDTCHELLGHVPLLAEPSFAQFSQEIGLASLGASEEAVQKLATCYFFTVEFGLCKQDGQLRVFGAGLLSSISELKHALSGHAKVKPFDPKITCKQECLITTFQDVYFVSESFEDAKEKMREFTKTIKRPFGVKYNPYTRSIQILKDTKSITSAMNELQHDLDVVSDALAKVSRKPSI
Assay: biochemical
Description: Biochemical In Vitro Assay Using Fluorescence Readout
To generate the enzyme, full length human TPH1 is cloned into the plasmid pET20b(+) (Novagen) and expressed in E. coli. The bacterial cells are ruptured by sonication on ice and the lysate is cleared by centrifugation. The resulting protein in the pellet is re-extracted and TPH1 is purified from the obtained lysate by affinity chromatography using a pterin cosubstrate analog immobilized to the resin of the column. The protein is further purified by size exclusion chromatography to remove protein aggregates. The activity of TPH1 is determined by using a fluorescence assay. The enzyme activity assay is carried out at 15° C. with atmosphere oxygen for the duration of 60 minutes in a volume of 64 μl. The reaction is carried out in a 0.1 M Tris-HCl buffer, adjusted to pH 7.6, containing 1 mM DTT, 0.2 mg/mL catalase, 100 μM (±)-6-methyl-5,6,7,8-tetrahydropterine dihydrochloride, 40 μM L-tryptophan, and 40-80 nM of TPH1. The reaction is started by bringing together L-tryptophan with all the other reaction substituents and stopped by quenching with perchloric acid (HClO4). The amount of 5-hydroxy-L-tryptophan produced during the enzymatic reaction is determined by fluorescence readout. Fluorescence, as determined at 540 nm when excited at 300 nm wavelength, increases proportionally to the 5-hydroxy-L-tryptophan formed. Compounds are prepared as 10 mM stock solution in DMSO, then diluted in 384-well plates using DMSO followed by a transfer of the dilutions into the assay plate. Fluorescence is measured for each well and the fluorescence at 540 nm wavelength is compared to the fluorescence of the vehicle in place of compound. […] The calculated IC50 values may fluctuate depending on the daily biochemical assay performance. Fluctuations of this kind are known to those skilled in the art.

Question: Which IC50 does the source give for O=C(COc1ccc(N2CCOCC2)cc1Cl)N1CCc2nc3ccccn3c2C1c1ccc(C2CC2)cc1F (centres unmarked) [Example 1.5.1, 2-(2-chloro-4-morpholinophenoxy)-1-(1-(4-cyclopropyl-2-fluorophenyl)-3,4-dihydroimidazo[1,2-a:5,4-c′]dipyridin-2(1H)-yl)ethan-1-one] here?
Answer: 9 nM

Question: With O=C(COc1ccc(N2CCOCC2)nc1Cl)N1CCc2nc3ccccn3c2C1c1ccc(C2CC2)cc1F (centres unmarked) [Example 1.5.2, 2-((2-chloro-6-morpholinopyridin-3-yl)oxy)-1-(1-(4-cyclopropyl-2-fluorophenyl)-3,4-dihydroimidazo[1,2-a:5,4-c′]dipyridin-2(1H)-yl)ethan-1-one] as the compound, how does the IC50 read?
Answer: 6 nM

Question: Cc1nc(N(C)C)ccc1OCC(=O)N1CCc2nc3ccccn3c2C1c1ccc(C2CC2)cc1F (centres unmarked) [Example 1.5.3, 1-(1-(4-cyclopropyl-2-fluorophenyl)-3,4-dihydroimidazo[1,2-a:5,4-c′]dipyridin-2(1H)-yl)-2-((6-(dimethylamino)-2-methylpyridin-3-yl)oxy)ethan-1-one] was tested. Which IC50 did it give?
Answer: 42 nM

Question: O=C(COc1cccnc1Cl)N1CCc2nc3ccccn3c2C1c1ccc(C2CC2)cc1F (centres unmarked) [Example 1.5.4, 2-((2-chloropyridin-3-yl)oxy)-1-(1-(4-cyclopropyl-2-fluorophenyl)-3,4-dihydroimidazo[1,2-a:5,4-c′]dipyridin-2(1H)-yl)ethan-1-one] was tested. Which IC50 did it give?
Answer: 34 nM

Question: How did the IC50 turn out when CCc1nc(C)ccc1OCC(=O)N1CCc2nc3ccccn3c2C1c1ccc(C2CC2)cc1F (centres unmarked) [Example 1.5.5, 1-(1-(4-cyclopropyl-2-fluorophenyl)-3,4-dihydroimidazo[1,2-a:5,4-c′]dipyridin-2(1H)-yl)-2-((2-ethyl-6-methylpyridin-3-yl)oxy)ethan-1-one] was run?
Answer: 29 nM

Question: For O=C(COc1cccnc1C(F)(F)F)N1CCc2nc3ccccn3c2C1c1ccc(C2CC2)cc1F (centres unmarked) [Example 1.5.6, 1-(1-(4-cyclopropyl-2-fluorophenyl)-3,4-dihydroimidazo[1,2-a:5,4-c′]dipyridin-2(1H)-yl)-2-((2-(trifluoromethyl)pyridin-3-yl)oxy)ethan-1-one], which IC50 is on record?
Answer: 13 nM

Question: O=C(COc1ccc(N2CCOCC2)nc1Cl)N1CCc2nc3ccccn3c2C1c1cnc(N2CCOCC2)s1 (centres unmarked) [Example 1.6.1, 2-((2-chloro-6-morpholinopyridin-3-yl)oxy)-1-(1-(2-morpholinothiazol-5-yl)-3,4-dihydroimidazo[1,2-a:5,4-c′]dipyridin-2(1H)-yl)ethan-1-one] was tested. Which IC50 did it give?
Answer: 387 nM

Question: How did the IC50 turn out when CN(C)Cc1csc(C2c3c(nc4ccccn34)CCN2C(=O)COc2ccc(N3CCOCC3)nc2Cl)c1 (centres unmarked) [Example 1.7.1, 2-((2-chloro-6-morpholinopyridin-3-yl)oxy)-1-(1-(4-((dimethylamino)methyl)thiophen-2-yl)-3,4-dihydroimidazo[1,2-a:5,4-c′]dipyridin-2(1H)-yl)ethan-1-one] was run?
Answer: 101 nM

Question: Which IC50 does the source give for O=C(COc1ccc(N2CCOCC2)nc1Cl)N1CCc2nc3ccccn3c2C1c1nc(-c2ccccc2)no1 (centres unmarked) [Example 1.8.1, 2-((2-chloro-6-morpholinopyridin-3-yl)oxy)-1-(1-(3-phenyl-1,2,4-oxadiazol-5-yl)-3,4-dihydroimidazo[1,2-a:5,4-c′]dipyridin-2(1H)-yl)ethan-1-one] here?
Answer: 16 nM

Question: With COc1ccc(C2c3c(nc4ccccn34)CCN2C(=O)COc2ccc3ccccc3c2)cc1O (centres unmarked) [Example 1.9.1, 1-(1-(3-hydroxy-4-methoxyphenyl)-3,4-dihydroimidazo[1,2-a:5,4-c′]dipyridin-2(1H)-yl)-2-(naphthalen-2-yloxy)ethan-1-one] as the compound, how does the IC50 read?
Answer: 230 nM

Question: With Cc1ccc(C2c3c(nc4ccccn34)CCN2C(=O)COc2ccc(Cl)cc2Cl)cc1C (centres unmarked) [Example 1.10.1, 2-(2,4-dichlorophenoxy)-1-(1-(3,4-dimethylphenyl)-3,4-dihydroimidazo[1,2-a:5,4-c′]dipyridin-2(1H)-yl)ethan-1-one] as the compound, how does the IC50 read?
Answer: 451 nM

Question: How did the IC50 turn out when O=C(COc1ccc(N2CCOCC2)nc1Cl)N1CCc2nc3ccccn3c2C1c1ccc(Cl)nc1F (centres unmarked) [Example 1.11.1, 1-(1-(6-chloro-2-fluoropyridin-3-yl)-3,4-dihydroimidazo[1,2-a:5,4-c′]dipyridin-2(1H)-yl)-2-((2-chloro-6-morpholinopyridin-3-yl)oxy)ethan-1-one] was run?
Answer: 7 nM

Question: For CCc1ncccc1OCC(=O)N1CCc2nc3ccccn3c2C1c1ccc(Cl)nc1F (centres unmarked) [Example 1.11.2, 1-(1-(6-chloro-2-fluoropyridin-3-yl)-3,4-dihydroimidazo[1,2-a:5,4-c′]dipyridin-2(1H)-yl)-2-((2-ethylpyridin-3-yl)oxy)ethan-1-one], which IC50 is on record?
Answer: 123 nM

Question: CCc1nc(C)ccc1OCC(=O)N1CCc2nc3ccccn3c2C1c1ccc(Cl)nc1F (centres unmarked) [Example 1.11.3, 1-(1-(6-chloro-2-fluoropyridin-3-yl)-3,4-dihydroimidazo[1,2-a:5,4-c′]dipyridin-2(1H)-yl)-2-((2-ethyl-6-methylpyridin-3-yl)oxy)ethan-1-one] was tested. Which IC50 did it give?
Answer: 241 nM

Question: With O=C(COc1ccc(N2CCOCC2)nc1Cl)N1CCc2nc3ccccn3c2C1c1ncc(C2CC2)cc1F (centres unmarked) [Example 1.12.1, 2-((2-chloro-6-morpholinopyridin-3-yl)oxy)-1-(1-(5-cyclopropyl-3-fluoropyridin-2-yl)-3,4-dihydroimidazo[1,2-a:5,4-c′]dipyridin-2(1H)-yl)ethan-1-one] as the compound, how does the IC50 read?
Answer: 8 nM

Question: With O=C(COc1ccc(N2CCOCC2)cc1Cl)N1CCc2nc3ccccn3c2C1c1ncc(C2CC2)cc1F (centres unmarked) [Example 1.12.2, 2-(2-chloro-4-morpholinophenoxy)-1-(1-(5-cyclopropyl-3-fluoropyridin-2-yl)-3,4-dihydroimidazo[1,2-a:5,4-c′]dipyridin-2(1H)-yl)ethan-1-one] as the compound, how does the IC50 read?
Answer: 23 nM

Question: For CCc1nc(C)ccc1OCC(=O)N1CCc2nc3ccccn3c2C1c1ncc(C2CC2)cc1F (centres unmarked) [Example 1.12.3, 1-(1-(5-cyclopropyl-3-fluoropyridin-2-yl)-3,4-dihydroimidazo[1,2-a:5,4-c′]dipyridin-2(1H)-yl)-2-((2-ethyl-6-methylpyridin-3-yl)oxy)ethan-1-one], which IC50 is on record?
Answer: 146 nM

Question: How did the IC50 turn out when O=C(COc1ccc(N2CCOCC2)nc1Cl)N1CCc2nc3ccccn3c2C1c1ccc(C2CC2)nc1F (centres unmarked) [Example 1.13.1, 2-((2-chloro-6-morpholinopyridin-3-yl)oxy)-1-(1-(6-cyclopropyl-2-fluoropyridin-3-yl)-3,4-dihydroimidazo[1,2-a:5,4-c′]dipyridin-2(1H)-yl)ethan-1-one] was run?
Answer: 8 nM

Question: For O=C(COc1ccc(N2CCOCC2)nc1Cl)N1CCc2nc3ccccn3c2C1c1ncc(Cl)cc1F (centres unmarked) [Example 1.14.1, 1-(1-(5-chloro-3-fluoropyridin-2-yl)-3,4-dihydroimidazo[1,2-a:5,4-c′]dipyridin-2(1H)-yl)-2-((2-chloro-6-morpholinopyridin-3-yl)oxy)ethan-1-one], which IC50 is on record?
Answer: 4 nM

Question: With COC(=O)c1ccc(OCC(=O)N2CCc3nc4ccccn4c3[C@@H]2c2ncc(Cl)cc2F)c(Cl)n1 [Example 1.14.2, methyl (R)-6-chloro-5-(2-(1-(5-chloro-3-fluoropyridin-2-yl)-3,4-dihydroimidazo[1,2-a:5,4-c′]dipyridin-2(1H)-yl)-2-oxoethoxy)picolinate] as the compound, how does the IC50 read?
Answer: 222 nM

Question: With COC(=O)c1ccc(C2c3c(nc4ccccn34)CCN2C(=O)COc2ccc(NS(C)(=O)=O)nc2Cl)c(F)c1 (centres unmarked) [Example 1.15.1, methyl-4-(2-(2-((2-chloro-6-(methylsulfonamido)pyridin-3-yl)oxy)acetyl)-1,2,3,4-tetrahydroimidazo[1,2-a:5,4-c′]dipyridin-1-yl)-3-fluorobenzoate] as the compound, how does the IC50 read?
Answer: 71 nM

Question: Which IC50 does the source give for COC(=O)c1ccc(C2c3c(nc4ccccn34)CCN2C(=O)COc2ccc(C(=O)NC3CC3)nc2Cl)c(F)c1 (centres unmarked) [Example 1.15.2, methyl-4-(2-(2-((2-chloro-6-(cyclopropylcarbamoyl)pyridin-3-yl)oxy)acetyl)-1,2,3,4-tetrahydroimidazo[1,2-a:5,4-c′]dipyridin-1-yl)-3-fluorobenzoate] here?
Answer: 49 nM

Question: For CC(C)(O)c1ccc(C2c3c(nc4ccccn34)CCN2C(=O)COc2ccc(C(=O)NC3CC3)nc2Cl)c(F)c1 (centres unmarked) [Example 1.16.1, 6-chloro-N-cyclopropyl-5-(2-(1-(2-fluoro-4-(2-hydroxypropan-2-yl)phenyl)-3,4-dihydroimidazo[1,2-a:5,4-c′]dipyridin-2(1H)-yl)-2-oxoethoxy)picolinamide], which IC50 is on record?
Answer: 244 nM
